Measurements published in US9670255B2 (priority 2013, dated 2017).

Experiments:
[1] = target: LISA314 WT; test: Affinity analysis by SPR (Biacore assay), LISA314 WT; type: binding, Streptomyces avidinii; conditions: SPR Biacore T100, protein immobilized on Sensor Chip NTA, equilibrium value analysis, read-out: Dissociation constant: KD
Procedure: (§1) For affinity analysis, Biacore T100 was used. Specifically, the protein that had been fractionated by gel filtration chromatography was immobilized using Sensor Chip NTA. As a running buffer, 0.5% Tween20, HBS-P+ was used. Immobilization of the protein on nickel NTA and ligand capture were carried out according to the template program included therewith.
(§2) The amount of a ligand immobilized on a sensor chip was adjusted within the range of 1608 RU to 8042 RU, so as to suppress mass transport limitation. As analytes, biocytin and Compound 29 (the structure thereof is shown below) synthesized in Example 1 were used. It is to be noted that biocytin is a main existence form of biotin.
(§3) With regard to the concentrations of the analytes, in the case of biocytin, eight 2-fold dilution series were prepared from 1 μM, and in the case of Compound 29, twelve 2-fold dilution series were prepared from 16 μM. The measurement was carried out at a flow rate of 30 μl/min, for a contact time of 120 seconds, and for a dissociation time of 600 seconds. For the analysis of the data, sensorgrams for all concentrations were incorporated into analysis software, the equilibrium value analysis was then carried out, and the dissociation constant KD was then calculated.

[2] = target: LISA314 V21 (Streptomyces avidinii, UniProt P22629, E125D/E140N/N47D/R108K/R127K/S51D/Y107S/Y46S); test: Affinity analysis by SPR (Biacore assay), LISA314 V21; type: binding; conditions: SPR Biacore T100, protein immobilized on Sensor Chip NTA, equilibrium value analysis, read-out: Dissociation constant: KD
Procedure: as §1, §2, §3

Sequence of LISA314 V21 (P22629 25-183 Y46S/N47D/S51D/Y107S/R108K/E125D/R127K/E140N limits assumed): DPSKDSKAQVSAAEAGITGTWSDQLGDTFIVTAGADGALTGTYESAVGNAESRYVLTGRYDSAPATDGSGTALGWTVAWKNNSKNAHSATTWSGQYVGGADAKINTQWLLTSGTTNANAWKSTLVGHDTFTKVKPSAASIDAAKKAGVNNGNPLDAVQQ

Question: Which results are given for N[C@@H](CCCCNC(=O)CCCC[C@@H]1SC[C@@H]2NC(=O)N[C@@H]21)C(=O)O [Biocytin, biocytin]?
Answer: Kd [1]: 2.38 nM; Kd [2]: 348 nM
